Measurements: patent US20240208939A1, “TREATMENT OF AUTOIMMUNE AND INFLAMMATORY DISORDERS WITH INHIBITORS OF BET FAMILY BDII BROMODOMAIN” (POSEIDON INNOVATION 1, INC., priority 2022, published 2024)

What was measured:
[1] = tested on: IMQ-mouse model of psoriasis; experiment: IMQ induced psoriasis mouse model, PASI scoring; assay type: in vivo, mice; settings: daily dosing po, compared to vehicle treatment
Protocol: Except for the control group, all other groups received a daily topical dose of 60 mg of 5% commercially available IMQ cream on the shaved back for 7 consecutive days. The same amount of Vaseline was applied to the same areas of the animals in the negative control group. Vehicle and DF-6129 were dosed daily (po) for 8 days, from Day −1 to Day 7. Dosing time: 1 hour prior to IMQ application. Psoriasis Area and Severity Index (PASI) Scoring The Psoriasis Area and Severity Index (PASI) scoring system was used to evaluate the severity of skin inflammation of the mouse model. Erythema, scaling, and skin thickness was scored independently from 0-4 as (daily scoring) as below: [table] All statistical analysis were conducted, and the level of significance was set at P<0.05. The group means and standard deviation were calculated for all measurement parameters as study designed. One-way ANOVA comparisons among the groups was performed with software SPSS 16.0.

IL-17A = experiment: Back skin PCR analysis in IMQ-treated mice, IL-17A mRNA; assay type: in vivo; settings: 10 mg/kg, compared with vehicle treatment alone
Protocol: (§1) Except for the control group, all other groups received a daily topical dose of 60 mg of 5% commercially available IMQ cream on the shaved back for 7 consecutive days. The same amount of Vaseline was applied to the same areas of the animals in the negative control group.
(§2) Vehicle and DF-6129 were dosed daily (po) for 8 days, from Day −1 to Day 7. Dosing time: 1 hour prior to IMQ application.
(§3) Animals were euthanized 4 h post last dosing on day 7 (3 h after applying with imiquimod cream) and back skin was be collected. The skin tissues were divided into two parts. One half was flash frozen and stored at −80° C. for PCR analysis (IL-17A, IL-17F, IL-22 and IL-23), the other half was fixed in 10% formalin for HE staining and scoring.
(§4) All statistical analysis were conducted, and the level of significance was set at P<0.05. The group means and standard deviation were calculated for all measurement parameters as study designed. One-way ANOVA comparisons among the groups was performed with software SPSS 16.0.

MCP-1 = experiment: PBMC MCP-1 HTRF Assay; assay type: cell-based; settings: LPS 200 ng/mL, 24 hours
Protocol: The cryopreserved PBMC cells were thawed in a 37° C. water bath immediately after taking out from liquid nitrogen storage. A sterile pipette was used to transfer the content to sterile […] centrifuge tube containing […] of complete growth medium (Gibico 1640) and centrifuge at 300×g for 10 min. Supernatant was discarded, and cell pellet was resuspended in 10 mL of complete growth media in a sterile 15 mL tube. The cells were rested for 1 h at 37° C. (1×10^6 cells/mL). The cells were spinned down at 300×g for 10 minutes after 1 h. Supernatant was discard, and cell pellet was resuspended in complete growth medium, the cells number and viability were measured by AO/PI staining. In a 384-well white plate, PBMCs at 25 k cells/well (15 μl per well) were seeded with Gibico 1640 medium. The compound stock was serial diluted into […] by 3-fold dilution. 20 nL DMSO, 20 nL test compounds DMSO stock (serial diluted) were transferred in assay plate by using ECHO550, incubate for 30 min at 37° C., 5% CO2. LPS was diluted by Gibico 1640 medium.add 5 μl per well. The final concentration (200 ng/mL) was incubated for 24 hours at 37° C. with 5% CO2.
For MCP-1 HTRF, 2.5 μl/well MCP-1 donor antibody and 2.5 μl/well MCP-1 acceptor antibody were added into 384 well plate, following by centrifuging at 190×g for 1 min and incubating at room temperature for 2 h. The plate was read on the Envision.

IL-23 = experiment: Back skin PCR analysis in IMQ-treated mice, IL-23 mRNA; assay type: in vivo; settings: 10 mg/kg, compared with vehicle treatment alone
Protocol: as §1, §2, §3, §4

IL-22 = experiment: Back skin PCR analysis in IMQ-treated mice, IL-22 mRNA; assay type: in vivo; settings: 10 mg/kg, compared with vehicle treatment alone
Protocol: as §1, §2, §3, §4

IL-17 = experiment: Serum IL-17 ELISA in IMQ-mouse model of psoriasis; assay type: in vivo, mice; settings: compared to vehicle treatment alone, 4 h post last dosing on day 7
Protocol: Except for the control group, all other groups received a daily topical dose of 60 mg of 5% commercially available IMQ cream on the shaved back for 7 consecutive days. The same amount of Vaseline was applied to the same areas of the animals in the negative control group. Vehicle and DF-6129 were dosed daily (po) for 8 days, from Day −1 to Day 7. Dosing time: 1 hour prior to IMQ application. Animals were euthanized 4 h post last dosing on day 7 (3 h after applying with imiquimod cream). Whole Blood was collected via cardiac puncture from all group animals. Serum samples were separated by centrifugation at 4° C. at 8000 g for 5 minutes, total 70 samples. All serum samples were stored at −80° C. for IL-17 analysis. All statistical analysis were conducted, and the level of significance was set at P<0.05. The group means and standard deviation were calculated for all measurement parameters as study designed. One-way ANOVA comparisons among the groups was performed with software SPSS 16.0.

BRD4 BD2 = target: T1, BRD4 BD2 (Homo sapiens, UniProt O60885); experiment: Target Engagement Intracellular BET BRD Assay (NanoBRET); assay type: cell-based; settings: read-out: BRD4 BD2 TE IC50
T1 construct: BD2 TE; expressed in transfected cells
Protocol: 3× Complete Substrate plus Inhibitor Solution in Assay Medium (Opti-MEM® I Reduced Serum Medium, no phenol red, and no serum) was prepared just before measuring BRET. This solution consisted of a 1:166 dilution of NanoBRET™ Nano-Glo® Substrate plus a 1:500 dilution of Extracellular NanoLuc® Inhibitor in Assay Medium. For a 96-well plate, 30 μl of NanoBRET™ Nano-Glo® Substrate, 10 μl of Extracellular NanoLuc® Inhibitor and 4,960 μl of Assay Medium were mixed to produce 5 ml of 3× Complete Substrate plus Inhibitor Solution, followed with gently mixing by inversion 5-10 times in a conical tube. (The final concentration of Extracellular NanoLuc® Inhibitor in the 3× solution was 60 μM, for a working concentration of 20 μM. Use 3× Complete Substrate plus Inhibitor Solution within 2 hours. Discard any remaining solution).
50 μl of 3× Complete Substrate plus Inhibitor Solution were added to each well of the 96-well plate, followed by incubation for 2-3 minutes at room temperature. Donor emission wavelength (e.g., 450 nm) and acceptor emission wavelength (e.g., 610 nm) were measured by using the GloMax® Discover System or other NanoBRET™ Assay-compatible luminometer (it is recommended measuring BRET within 10 minutes after adding NanoBRET™ Nano-Glo™ Substrate plus Extracellular NanoLuc® Inhibitor Solution. However, BRET can be measured for up to 2 hours, but there will be some loss of luminescence signal).
To generate raw BRET ratio values, the acceptor emission value (e.g., 610 nm) was divided by the donor emission value (e.g., 450 nm) for each sample [to correct for background, the BRET ratio was substracted in the absence of tracer (average of no-tracer control samples) from the BRET ratio of each sample]. Raw BRET units were converted to milliBRET units (mBU) by multiplying each raw BRET value by 1,000. NanoBRET™ ratio equation, including optional background correction is shown below:
BRET Ratio=[(Acceptorsample÷Donorsample)−(Acceptorno-tracer control÷Donorno-tracer control)]×1,000.

IL-17A, IL17F and IL-22 = settings: Gilan et al. 2020; cited from earlier work

Row | IC50 (MCP-1) [pM] | IC50 (BRD4 BD2) [pM] | SMILES | erythema [1] | scaling [1] | skin thickening [1] | total psoriasis (PASI) score [1] | mRNA levels of IL-17A from the back skin (IL-17A) | mRNA levels of IL-23 from the back skin (IL-23) | mRNA levels of IL-22 from the back skin (IL-22) | serum IL-17 levels (IL-17) | expression of disease relevant pro-inflammatory genes, including IL-17A, IL17F and IL-22 (IL-17A, IL17F and IL-22)
1 | 1510 | 323 | Cn1ccn(-c2ccc(-c3cc(F)cc(-c4cccc(N5CCN(C(C)(C)C)CC5)c4)c3O)cc2Cl)c1=O [Example I-1, 1-(3″-(4-(tert-butyl)piperazin-1-yl)-3-chloro-5′-fluoro-2′-hydroxy-[1,1′:3′,1″- terphenyl]-4-yl)-3-methyl-1,3-dihydro-2H-imidazol-2-one] | significant decreases | significant decreases | significant decreases | significantly reduced | significantly reduced | significantly reduced | significantly reduced | significantly reduced | 
2 |  |  | CNC(=O)c1cc(C(=O)NC2CC2)cn(Cc2ccccc2)c1=O [GSK620] |  |  |  |  |  |  |  |  | reduced the expression
